In patent US20040156869A1, “2-substituted quinazolin-4-ylamine analogues” (Neurogen Corporation, priority 2002, published 2004):
Like-named read-outs stand apart in the source and are kept apart here.

Target: human capsaicin receptor (VR1) (Homo sapiens, UniProt Q8NER1)
Experiment: Capsaicin receptor binding assay ([3H]RTX competition, VR1-transfected HEK293 membranes)

Chain of human capsaicin receptor (VR1) (Q8NER1 whole entry): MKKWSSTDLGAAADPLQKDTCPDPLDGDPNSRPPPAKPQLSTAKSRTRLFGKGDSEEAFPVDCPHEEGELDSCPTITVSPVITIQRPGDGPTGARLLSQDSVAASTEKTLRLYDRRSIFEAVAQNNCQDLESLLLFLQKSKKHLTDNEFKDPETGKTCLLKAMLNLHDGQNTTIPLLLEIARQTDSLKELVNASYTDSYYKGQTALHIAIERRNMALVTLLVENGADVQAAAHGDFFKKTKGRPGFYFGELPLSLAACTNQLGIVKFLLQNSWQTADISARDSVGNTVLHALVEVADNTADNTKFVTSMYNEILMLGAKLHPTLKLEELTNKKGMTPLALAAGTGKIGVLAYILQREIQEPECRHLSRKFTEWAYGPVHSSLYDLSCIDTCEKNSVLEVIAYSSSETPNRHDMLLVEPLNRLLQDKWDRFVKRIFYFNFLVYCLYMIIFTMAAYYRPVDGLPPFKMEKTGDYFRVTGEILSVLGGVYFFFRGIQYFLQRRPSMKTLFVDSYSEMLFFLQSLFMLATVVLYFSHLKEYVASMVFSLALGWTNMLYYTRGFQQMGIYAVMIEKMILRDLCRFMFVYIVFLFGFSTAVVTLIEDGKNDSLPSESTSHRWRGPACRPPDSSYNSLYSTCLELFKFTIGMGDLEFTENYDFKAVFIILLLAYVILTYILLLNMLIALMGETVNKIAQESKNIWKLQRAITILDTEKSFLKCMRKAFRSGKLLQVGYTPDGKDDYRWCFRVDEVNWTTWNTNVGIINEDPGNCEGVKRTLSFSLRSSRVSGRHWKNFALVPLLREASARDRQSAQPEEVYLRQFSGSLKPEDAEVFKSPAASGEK

| SMILES | Ki | Ki (Table III, * = Ki 1 micromolar or less) |
| --- | --- | --- |
| CCOCN(COCC)Cc1nc(Nc2ccc(C(F)(F)F)cc2)c2ccc(-c3ncccc3C)cc2n1 [Compound 725, [2-[(Bis-ethoxymethyl-amino)-methyl]-7-(3-methyl-pyridin-2-yl)-quinazolin-4-yl]-(4-trifluoromethyl-phenyl)-amine] | < 1000 nM | – |
| CCCN(CCC)Cc1nc(Nc2ccc(C(F)(F)F)cc2)c2ccc(-c3ncccc3C)cc2n1 [Compound 726, [2-Dipropylaminomethyl-7-(3-methyl-pyridin-2-yl)-quinazolin-4-yl]-(4-trifluoromethyl-phenyl)-amine] | < 1000 nM | – |
| Cc1cccnc1-c1ccc2c(Nc3ccc(C(F)(F)F)cc3)nc(C3CN(C(=O)OC(C)(C)C)C3)nc2n1 [Compound 727, 3-[7-(3-Methyl-pyridin-2-yl)-4-(4-trifluoromethyl-phenylamino)-pyrido[2,3-d]pyrimidin-2-yl]-azetidine-1-carboxylic acid tert-butyl ester] | < 1000 nM | – |
| O=C(O)C1CCN(Cc2nc(Nc3ccc(C(F)(F)F)cc3)c3ccc(-c4ncccc4C(F)(F)F)cc3n2)CC1 [Compound 728, 1-[4-(4-Trifluoromethyl-phenylamino)-7-(3-trifluoromethyl-pyridin-2-yl)-quinazolin-2-ylmethyl]-piperidine-4-carboxylic acid] | < 1000 nM | – |
| O=C(O)C1CCCN(Cc2nc(Nc3ccc(C(F)(F)F)cc3)c3ccc(-c4ncccc4C(F)(F)F)cc3n2)C1 (stereo not shown) [Compound 729, 1-[4-(4-Trifluoromethyl-phenylamino)-7-(3-trifluoromethyl-pyridin-2-yl)-quinazolin-2-ylmethyl]-piperidine-3-carboxylic acid] | < 1000 nM | – |
| O=C(O)[C@@H]1CCCN1Cc1nc(Nc2ccc(C(F)(F)F)cc2)c2ccc(-c3ncccc3C(F)(F)F)cc2n1 [Compound 730, (S)-1-[4-(4-Trifluoromethyl-phenylamino)-7-(3-trifluoromethyl-pyridin-2-yl)-quinazolin-2-ylmethyl]-pyrrolidine-2-carboxylic acid] | < 1000 nM | – |
| Cc1cccnc1-c1ccc2c(Nc3ccc(C(F)(F)F)cc3)nc(CN3CCCC(C)(C)C3)nc2c1 [Compound 731, [2-(3,3-Dimethyl-piperidin-1-ylmethyl)-7-(3-methyl-pyridin-2-yl)-quinazolin-4-yl]-(4-trifluoromethyl-phenyl)-amine] | < 1000 nM | – |
| Cc1cccnc1-c1ccc2c(Nc3ccc(C(F)(F)F)cc3)nc(CN3CC[C@@H](O)C3)nc2c1 [Compound 732, (R)-1-[7-(3-Methyl-pyridin-2-yl)-4-(4-trifluoromethyl-phenylamino)-quinazolin-2-ylmethyl]-pyrrolidin-3-ol] | < 1000 nM | – |
| Cc1cccnc1-c1ccc2c(Nc3ccc(C(F)(F)F)cc3)nc(CN3CC[C@@H](CO)C3)nc2c1 [Compound 733, (R)-{1-[7-(3-Methyl-pyridin-2-yl)-4-(4-trifluoromethyl-phenylamino)-quinazolin-ylmethyl]-pyrrolidin-3-yl}-methanol] | < 1000 nM | – |
| Cc1cccnc1-c1ccc2c(Nc3ccc(C(F)(F)F)cc3)nc(CN3CC[C@H](CO)C3)nc2c1 [Compound 734, (S)-{1-[7-(3-Methyl-pyridin-2-yl)-4-(4-trifluoromethyl-phenylamino)-quinazolin-2-ylmethyl]-pyrrolidin-3-yl}-methanol] | < 1000 nM | – |
| Cc1cccnc1-c1ccc2c(Nc3ccc(C(F)(F)F)cc3)nc(C3CNC3)nc2n1 [Compound 735, [2-Azetidin-3-yl-7-(3-methyl-pyridin-2-yl)-pyrido[2,3-d]pyrimidin-4-yl]-(4-trifluoromethyl-phenyl)-amine] | < 1000 nM | – |
| CCOC(=O)C1CCN(CCc2nc(Nc3ccc(C(F)(F)F)cc3)c3ccc(-c4ncccc4C(F)(F)F)cc3n2)CC1 [Compound 736, 1-{2-[4-(4-Trifluoromethyl-phenylamino)-7-(3-trifluoromethyl-pyridin-2-yl)-quinazolin-2-yl]-ethyl}-piperidine-4-carboxylic acid ethyl ester] | – | < 1000 nM |
| O=C(O)C1CCCCN1Cc1nc(Nc2ccc(C(F)(F)F)cc2)c2ccc(-c3ncccc3C(F)(F)F)cc2n1 (stereo not shown) [Compound 737, 1-[4-(4-Trifluoromethyl-phenylamino)-7-(3-trifluoromethyl-pyridin-2-yl)-quinazolin-2-ylmethyl]-piperidine-2-carboxylic acid] | < 1000 nM | – |
| Cc1cccnc1-c1ccc2c(Nc3ccc(C(F)(F)F)cc3)nc(CN3C[C@@H](C)O[C@@H](C)C3)nc2n1 [Compound 738, [2-(2,6-Dimethyl-morpholin-4-ylmethyl)-7-(3-methyl-pyridin-2-yl)-pyrido[2,3-d]pyrimidin-4-yl]-(4-trifluoromethyl-phenyl)-amine (cis)] | < 1000 nM | – |

Continued, values first:

| Ki | Ki (Table III, * = Ki 1 micromolar or less) | SMILES |
| --- | --- | --- |
| < 1000 nM | – | CCCN(C)Cc1nc(Nc2ccc(C(C)C)cc2)c2ccc(-c3ncccc3C)cc2n1 [Compound 716, (4-Isopropyl-phenyl)-[2-[(methyl-propyl-amino)-methyl]-7-(3-methyl-pyridin-2-yl)-quinazolin-4-yl]-amine] |
| < 1000 nM | – | CCN(Cc1nc(Nc2ccc(C(C)C)cc2)c2ccc(-c3ncccc3C)cc2n1)C(C)C [Compound 717, [2-[(Ethyl-isopropyl-amino)-methyl]-7-(3-methyl-pyridin-2-yl)-quinazolin-4-yl]-(4-isopropyl-phenyl)-amine] |
| < 1000 nM | – | Cc1cccnc1-c1ccc2c(Nc3ccc(C(C)C)cc3)nc(CN(C)C(C)C)nc2c1 [Compound 718, [2-[(Isopropyl-methyl-amino)-methyl]-7-(3-methyl-pyridin-2-yl)-quinazolin-4-yl]-(4-isopropyl-phenyl)-amine] |
| < 1000 nM | – | COCCN(CCOC)Cc1nc(Nc2ccc(C(C)C)cc2)c2ccc(-c3ncccc3C)cc2n1 [Compound 719, [2-{[Bis-(2-methoxy-ethyl)-amino]-methyl}-7-(3-methyl-pyridin-2-yl)-quinazolin-4-yl]-(4-isopropyl-phenyl)-amine] |
| < 1000 nM | – | C[C@@H]1CN(Cc2nc(Nc3ccc(S(=O)(=O)N4CCOCC4)cc3)c3ncc(-c4ncccc4Cl)cc3n2)C[C@H](C)O1 [Compound 720, [7-(3-Chloro-pyridin-2-yl)-2-(2,6-dimethyl-morpholin-4-ylmethyl)-pyrido[3,2-d]pyrimidin-4-yl]-[4-(morpholine-4-sulfonyl)-phenyl]-amine (cis)] |
| < 1000 nM | – | CN(C)Cc1nc(Nc2ccc(S(=O)(=O)N3CCOCC3)cc2)c2ccc(-c3ncccc3C(F)(F)F)cc2n1 [Compound 721, [2-Dimethylaminomethyl-7-(3-trifluoromethyl-pyridin-2-yl)-quinazolin-4-yl]-[4-(morpholine-4-sulfonyl)-phenyl]-amine] |
| < 1000 nM | – | CC(C)N(C)Cc1nc(Nc2ccc(S(=O)(=O)N3CCOCC3)cc2)c2ccc(-c3ncccc3C(F)(F)F)cc2n1 [Compound 723, [2-[(Isopropyl-methyl-amino)-methyl]-7-(3-trifluoromethyl-pyridin-2-yl)-quinazolin-4-yl]-[4-(morpholine-4-sulfonyl)-phenyl]-amine] |
| < 1000 nM | – | CCCN(CC)Cc1nc(Nc2ccc(S(=O)(=O)N3CCOCC3)cc2)c2ccc(-c3ncccc3C(F)(F)F)cc2n1 [Compound 724, [2-[(Ethyl-propyl-amino)-methyl]-7-(3-trifluoromethyl-pyridin-2-yl)-quinazolin-4-yl]-[4-(morpholine-4-sulfonyl)-phenyl]-amine] |
